Measurements published in US8901294B2, “MRI contrast agent having gadolinium complex” (priority 2010, dated 2014).
“Also recorded” adds a separate entry of the source. Read-outs that look alike come from different tables or passages of the source.

Tests used:
[1] = Relaxation times (T1, T2) and relaxivities (R1, R2) at 1.5 T; format: physicochemical
Protocol: T1 measurements were carried out using an inversion recovery method with a variable inversion time (TI) at 1.5 T. The MR images were acquired at 35 different TI values ranging from 50 to 1750 ms. T1 relaxation times were obtained from the nonlinear least-squares fit of the signal intensity measured at each T1 value. For T2 measurements the CPMG (Carr-Purcell-Meiboon-Gill) pulse sequence was adapted for multiple spin-echo measurements. Thirty-four images were acquired with 34 different echo time (TE) values. T2 relaxation times were obtained from the nonlinear least-squares fit of the mean pixel values for the multiple spin-echo measurements at each echo time. Relaxivities were then calculated as an inverse (R=1/s·mM) of relaxation time per mM. The determined relaxation times and relaxivities are finally transformed to a phantom map. The phantom images were obtained with the same concentration of Dotarem® and gadolinium complexes or comparative purposes. […] Table 2 summarizes the relaxation times and relaxivities for gadolinium complexes of the present invention along with other Gd-complexes.

[2] = tested on: ICR mice; test: In vivo MRI test; details: 0.1 mmol of Gd/kg
Protocol: (§1) To study the contrasting effect of the MRI contrast agent according to the present invention, six-week-old male ICR mice (weight=29-31 g) were used for the in vivo study. The mice were anesthetized by 1.5% isoflurane in oxygen and treated with gadolinium complex (5c) of the present invention at amount of 0.1 mmol of Gd/kg. After the treatment, the mouse was revived from anesthesia and placed in the cage with free access to food and water. The animals were maintained at approximately 37° C. using a warm water blanket.
MR images were taken with 1.5 T (GE Healthcare, Milwaukee, Wis., USA) equipped with a homemade small animal RF coil. The coil was of the receiver type with its inner diameter being 50 mm. The imaging parameters for 3D fast SPGR (spoiled GRASS images) are as follows: repetition time (TR)=8.8 ms; echo time (TE)=3.9 ms; 10 mm field of view (FOV); 256×192 matrix size; 1.0 mm slice thickness; number of acquisition (NEX)=4. The imaging parameters for spin-echo are as follows: TR=500 ms; TE=13 ms; 6 mm FOV; 192×128 matrix size; 1.5 mm slice thickness; NEX=4. Each image was taken with an interval of 3 min and 16 s. […] For analysis of the obtained MR images, signal intensities in specific regions of interest (ROI) were measured using Advantage Window software (GE Medical, USA). The CNR was calculated using Equation 3, where SNR is the signal-to-noise ratio. […]

[3] = ICP measurement of Gd(III) ion concentration in organs with time; format: in vivo, mice; parameters: unit not given here
Protocol: as §1
The excretion via the bile duct was further confirmed by measuring the concentration of Gd(III) ions with time through inductively coupled plasma (ICP) measurement. At 6 h after the injection, the Gd(III) ions were detected in the intestine, confirming that they are excreted via the liver and the bile duct.

[4] = 20 MHz, 298 K; cited from earlier work
[5] = Transmetalation kinetics: evolution of paramagnetic relaxation rate R1P(t)/R1P(0) in presence of ZnCl2; format: physicochemical
From the text: […]. The relative value of R1^P at time t, R1^P(t)/R1^P(0), is therefore a good estimate of the extent of transmetalation. The evolution of R1^P(t)/R1^P(0) over time gives relevant information about the kinetics of the reaction, whereas the plateau value theoretically reached at t=∞ will reflect the thermodynamic aspect.
Accordingly, in order to investigate the transmetalation kinetics of the gadolinium complexes according to the present invention, the evolution of water proton relaxation rate (R1^P) of a phosphate-buffered solution (pH 7.4) containing 2.5 mmol/L of Gd-complex and 2.5 mmol/L of ZnCl2 with time was measured. To measure the change in the relaxation rate, 10 μL of a ZnCl2 solution (250 mmol/L) was added to 1 mL of a buffered solution of the Gd-complex and the mixture was vigorously stirred. The same experiment was performed with Dotarem®, Omniscan®, Multihance®, Primovist® and ethyl tranexamate (6) with zinc acetate for comparison. The measurement was made on a 3T whole body system (Magnetom Tim Trip; Simens, Germany) at room temperature.

[6] = reference values from ref. 8 or 9; cited from earlier work

C=CCOC(=O)C1CCC(CNC(=O)CN2CCN(CC(=O)[O-])CCN(CC(=O)[O-])CCN(CC(=O)[O-])CC2)CC1.O.[Gd+3] (centres unmarked) [Compound 5c]
R1 value compared with commercially available contrast agents (in words) ([1]; 1.5 T): significantly higher R1 values than any of the clinically used contrast agents; also recorded: very high R1 values
R1 relaxivity ([1]; 1.5 T, mean value(±SD)): 9.5 ± 0.12 mM⁻¹ s⁻¹
R2 relaxivity ([1]; 1.5 T, mean value(±SD)): 10.9 ± 0.03 mM⁻¹ s⁻¹
T1 relaxation time ([1]; 1.5 T, mean value(±SD)): 105.28 ± 1.33 ms
T2 relaxation time ([1]; 1.5 T, mean value(±SD)): 91.74 ± 0.25 ms
R1 value relative to that of Dotarem ([1]; ratio of R1 values): 2.6 times
excretion pattern (MR images) [2]: excreted slowly to the intestine via the bile duct through hepatobiliary uptake
MR contrasting effect in the liver ([2]; 1.5 T): enhances contrast of the liver
concentration of Gd(III) ions (ICP) ([3]; Bile duct, 6 h after injection): 13.95
concentration of Gd(III) ions (ICP) ([3]; Blood, 1 h after injection): 5.16
concentration of Gd(III) ions (ICP) ([3]; Blood, 6 h after injection): 0.12
concentration of Gd(III) ions (ICP) ([3]; Intestine, 6 h after injection): 2.485
concentration of Gd(III) ions (ICP) ([3]; Kidney, 1 h after injection): 65.17
concentration of Gd(III) ions (ICP) ([3]; Kidney, 6 h after injection): 68.22
concentration of Gd(III) ions (ICP) ([3]; Kidney, 24 h after injection): 10.89
concentration of Gd(III) ions (ICP) ([3]; Kidney, 48 h after injection): 6.91
concentration of Gd(III) ions (ICP) ([3]; Liver, 1 h after injection): 62.09
concentration of Gd(III) ions (ICP) ([3]; Liver, 6 h after injection): 50.90
concentration of Gd(III) ions (ICP) ([3]; Liver, 24 h after injection): 33.73
concentration of Gd(III) ions (ICP) ([3]; Liver, 48 h after injection): 35.90
concentration of Gd(III) ions (ICP) ([3]; Liver, 72 h after injection): 6.22

CNC[C@H](O)[C@@H](O)[C@H](O)[C@H](O)CO.CNC[C@H](O)[C@@H](O)[C@H](O)[C@H](O)CO.O=C([O-])CN(CCN(CC(=O)[O-])CC(=O)O)CCN(CC(=O)[O-])CC(=O)O.[Gd+3] [Magnevist, (N-Me-glucamine)2[Gd(DTPA)(H2O)]]
magnetic relaxation rate [4]: about 4.7 mM^−1s^−1

CNC(=O)CN(CCN(CCN(CC(=O)[O-])CC(=O)NC)CC(=O)[O-])CC(=O)[O-].[Gd+3] [Omniscan, [Gd(DTPA-bismethylamide)(H2O)]]
paramagnetic relaxation rate retained, R1P(t)/R1P(0) (kinetic stability) ([5]; 72 hours, phosphate-buffered solution pH 7.4, 2.5 mmol/L Gd-complex and 2.5 mmol/L ZnCl2, room temperature, 3T): 30%
pattern of evolution of the paramagnetic relaxation rate R1P(t)/R1P(0) (in words) ([5]; phosphate-buffered solution pH 7.4, 2.5 mmol/L Gd-complex and 2.5 mmol/L ZnCl2, 72 hours): drastic decrease in the rate
R1 relaxivity [6]: 4.9 ± 0.14 mM⁻¹ s⁻¹
R2 relaxivity [6]: 3.4 ± 0.25 mM⁻¹ s⁻¹
T1 relaxation time [6]: 209.8 ± 5.82 ms
T2 relaxation time [6]: 290.9 ± 21.02 ms
magnetic relaxation rate [4]: about 4.4 mM^−1s^−1
